Here are results for eleven compounds from patent US20250051344A1, “BIFUNCTIONAL SELECTIVE DEGRADERS OF SMARCA2 AND THERAPEUTIC USES THEREOF” (Nurix Therapeutics, Inc., priority 2023, published 2025).

The target of assay [1] is T1, SMARCA2 (Homo sapiens, UniProt P51531).
T1 construct: endogenous in cells
The assay is described as follows: SMARCA2 Cellular Degradation Assay (Western blot analysis on Jess platform). In kind it is cell-based. The note with it: for DC50 / Dmax: cellular degradation; for Fold Selectivity SMARCA4/2: ratio DC50 SMARCA4 / DC50 SMARCA2. The essentials: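 Tumor-derived cell pellets (5×10E5-1×10E6 live cells) lysed in RIPA + 0.2% SDS, phosphatase/protease inhibitors, benzonase; 5 μg protein/capillary on Jess; chemiluminescence/fluorescence immunoassay; SMARCA2/actin peak area, % of vehicle.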
On the technique in general: Immunoblotting shows a protein as a band on a membrane.

In assay [2] the target is T2, SMARCA4 (Homo sapiens, UniProt P51532).
T2 construct: endogenous in cells
Nature of the assay: Cellular degradation assay, SMARCA4 (Table 1). In kind it is cell-based.

T2 sequence (P51532 whole entry, species assumed): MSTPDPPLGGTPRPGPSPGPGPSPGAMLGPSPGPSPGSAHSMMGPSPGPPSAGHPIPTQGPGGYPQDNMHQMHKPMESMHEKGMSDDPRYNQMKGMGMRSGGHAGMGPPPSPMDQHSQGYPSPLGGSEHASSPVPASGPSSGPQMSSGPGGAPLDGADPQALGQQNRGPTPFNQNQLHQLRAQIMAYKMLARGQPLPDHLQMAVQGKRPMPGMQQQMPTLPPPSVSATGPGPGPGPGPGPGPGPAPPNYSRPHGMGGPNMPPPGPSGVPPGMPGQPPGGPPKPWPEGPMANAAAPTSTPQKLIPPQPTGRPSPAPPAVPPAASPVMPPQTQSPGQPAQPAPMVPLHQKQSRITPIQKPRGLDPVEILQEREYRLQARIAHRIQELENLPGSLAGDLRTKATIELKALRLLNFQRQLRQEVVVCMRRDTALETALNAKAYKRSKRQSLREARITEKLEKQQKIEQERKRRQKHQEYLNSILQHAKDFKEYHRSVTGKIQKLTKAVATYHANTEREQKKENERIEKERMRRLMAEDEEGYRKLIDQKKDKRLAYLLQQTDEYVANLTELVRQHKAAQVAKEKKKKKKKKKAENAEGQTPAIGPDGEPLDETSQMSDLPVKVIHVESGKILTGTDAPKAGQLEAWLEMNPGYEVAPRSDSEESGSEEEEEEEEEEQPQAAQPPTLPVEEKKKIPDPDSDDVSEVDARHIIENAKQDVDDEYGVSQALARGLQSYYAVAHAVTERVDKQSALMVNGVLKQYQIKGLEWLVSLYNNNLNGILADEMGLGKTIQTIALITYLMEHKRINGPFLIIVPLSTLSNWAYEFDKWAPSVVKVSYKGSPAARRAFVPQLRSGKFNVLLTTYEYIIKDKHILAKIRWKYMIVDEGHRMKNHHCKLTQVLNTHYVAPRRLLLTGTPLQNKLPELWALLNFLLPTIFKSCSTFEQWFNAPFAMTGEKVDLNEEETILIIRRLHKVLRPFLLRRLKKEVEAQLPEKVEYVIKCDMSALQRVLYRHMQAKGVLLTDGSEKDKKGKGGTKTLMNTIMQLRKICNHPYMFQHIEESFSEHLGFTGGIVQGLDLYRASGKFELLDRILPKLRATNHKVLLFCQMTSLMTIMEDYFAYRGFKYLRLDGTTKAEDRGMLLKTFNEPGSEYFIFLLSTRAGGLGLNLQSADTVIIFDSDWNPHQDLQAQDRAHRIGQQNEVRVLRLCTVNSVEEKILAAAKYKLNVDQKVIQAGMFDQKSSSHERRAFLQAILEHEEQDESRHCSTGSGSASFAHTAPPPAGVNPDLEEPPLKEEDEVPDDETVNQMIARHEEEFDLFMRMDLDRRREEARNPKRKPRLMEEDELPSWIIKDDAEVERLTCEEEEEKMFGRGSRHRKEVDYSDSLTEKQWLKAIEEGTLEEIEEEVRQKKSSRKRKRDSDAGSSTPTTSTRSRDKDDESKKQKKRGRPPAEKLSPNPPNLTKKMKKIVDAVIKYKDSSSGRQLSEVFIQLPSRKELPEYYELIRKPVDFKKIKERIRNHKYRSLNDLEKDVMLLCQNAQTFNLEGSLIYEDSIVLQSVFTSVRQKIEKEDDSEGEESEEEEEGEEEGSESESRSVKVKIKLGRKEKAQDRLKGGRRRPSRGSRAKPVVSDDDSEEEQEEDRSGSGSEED
T1 sequence (P51531 whole entry, species assumed): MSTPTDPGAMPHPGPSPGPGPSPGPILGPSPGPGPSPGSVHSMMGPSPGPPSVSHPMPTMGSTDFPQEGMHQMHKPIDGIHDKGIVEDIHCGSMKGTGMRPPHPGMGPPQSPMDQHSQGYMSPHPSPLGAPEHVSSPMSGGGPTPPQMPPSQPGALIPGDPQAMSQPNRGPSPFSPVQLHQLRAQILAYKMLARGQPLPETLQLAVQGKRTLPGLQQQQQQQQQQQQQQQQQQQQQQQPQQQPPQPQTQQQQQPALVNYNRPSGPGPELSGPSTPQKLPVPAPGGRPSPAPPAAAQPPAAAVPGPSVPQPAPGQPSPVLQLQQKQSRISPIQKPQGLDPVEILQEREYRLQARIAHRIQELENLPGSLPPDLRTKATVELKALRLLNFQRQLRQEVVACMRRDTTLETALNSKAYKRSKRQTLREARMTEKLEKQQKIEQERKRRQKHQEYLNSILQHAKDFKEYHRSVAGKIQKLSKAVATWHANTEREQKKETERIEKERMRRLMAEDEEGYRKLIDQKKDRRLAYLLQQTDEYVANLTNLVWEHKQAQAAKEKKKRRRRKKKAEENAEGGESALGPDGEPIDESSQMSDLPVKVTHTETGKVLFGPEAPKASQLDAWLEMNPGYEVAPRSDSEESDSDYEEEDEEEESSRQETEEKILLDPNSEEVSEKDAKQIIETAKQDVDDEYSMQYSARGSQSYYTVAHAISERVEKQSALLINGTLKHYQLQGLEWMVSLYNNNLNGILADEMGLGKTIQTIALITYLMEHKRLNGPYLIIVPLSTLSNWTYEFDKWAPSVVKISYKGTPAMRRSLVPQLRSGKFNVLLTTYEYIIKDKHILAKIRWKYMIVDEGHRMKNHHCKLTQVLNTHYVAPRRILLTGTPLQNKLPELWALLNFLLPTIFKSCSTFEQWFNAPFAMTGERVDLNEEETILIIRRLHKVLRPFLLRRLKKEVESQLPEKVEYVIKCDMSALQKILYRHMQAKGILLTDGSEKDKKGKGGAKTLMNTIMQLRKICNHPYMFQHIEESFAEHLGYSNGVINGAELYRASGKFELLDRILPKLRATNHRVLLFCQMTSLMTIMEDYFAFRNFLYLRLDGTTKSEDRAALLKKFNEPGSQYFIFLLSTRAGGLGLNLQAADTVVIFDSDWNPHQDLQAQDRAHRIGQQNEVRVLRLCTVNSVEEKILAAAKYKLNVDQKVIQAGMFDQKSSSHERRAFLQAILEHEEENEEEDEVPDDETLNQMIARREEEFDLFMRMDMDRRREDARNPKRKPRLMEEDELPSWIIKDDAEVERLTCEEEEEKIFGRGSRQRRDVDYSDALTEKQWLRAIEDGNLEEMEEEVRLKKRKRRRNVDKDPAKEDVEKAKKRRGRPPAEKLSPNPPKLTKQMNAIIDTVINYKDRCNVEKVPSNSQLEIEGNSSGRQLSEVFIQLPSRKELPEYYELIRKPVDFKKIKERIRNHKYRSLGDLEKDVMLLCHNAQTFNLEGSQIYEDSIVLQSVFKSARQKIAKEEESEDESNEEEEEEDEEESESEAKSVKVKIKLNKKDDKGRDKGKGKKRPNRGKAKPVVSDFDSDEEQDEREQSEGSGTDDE

For orientation: DC50 means the concentration at which degradation of the target reaches its halfway point. Higher therefore signals a less potent degrader. Broadly, the Dmax is the greatest extent of degradation seen. Higher therefore signals deep degradation. Consider `O=C1CCC(c2ccc(N3CCC4(CCN(CC5CCN(C(=O)C6(c7ccccc7)CCN(c7cnnc(-c8ccccc8O)c7)CC6)CC5)C4)CC3)cc2)C(=O)N1` (racemic) [Example 163, rac-(3R)-3-(4-{2-[(1-{1-[6-(2-hydroxyphenyl)pyridazin-4-yl]-4-phenylpiperidine-4-carbonyl}piperidin-4-yl)methyl]-2,8-diazaspiro[4.5]decan-8-yl}phenyl)piperidine-2,6-dione], for which, in assay [1], the 50% degradation concentration (DC50) is 40.8 nM, the greatest degradation seen (Dmax) worked out at 62% and the “Fold Selectivity SMARCA4/2” value came to 245. The same compound yielded a Dmax in assay [2] of 49.3%.

For the compound `O=C1CC[C@@H](c2ccc(N3CCN(CC4=NO[C@@H]5CN(C(=O)C6(c7ccccc7)CCN(c7cnnc(-c8ccccc8O)c7)CC6)C[C@H]45)CC3)cc2)C(=O)N1` (racemic) [Example 165, (3RS&)-3-[4-(4-{[(3aRS,6aSR)-5-{1-[6-(2-hydroxyphenyl)pyridazin-4-yl]-4-phenylpiperidine-4-carbonyl}-3aH,4H,5H,6H,6aH-pyrrolo[3,4-d][1,2]oxazol-3-yl]methyl}piperazin-1-yl)phenyl]piperidine-2,6-dione], in assay [1], the DC50 stood at 45.8 nM, the greatest degradation seen (Dmax) was determined as 58% and the “Fold Selectivity SMARCA4/2” value came out at 22. In assay [2], this compound came in with a DC50 of 1000 nM and a Dmax of 34%.

With `O=C1CC[C@@H](c2ccc(O[C@H]3CC[C@H](CN4CC5(C4)CN(C(=O)C4(c6ccccc6)CCN(c6cnnc(-c7ccccc7O)c6)CC4)C5)CC3)cc2)C(=O)N1` (racemic) [Example 166, (3RS)-3-(4-{[(1r,4r)-4-[(6-{1-[6-(2-hydroxyphenyl)pyridazin-4-yl]-4-phenylpiperidine-4-carbonyl}-2,6-diazaspiro[3.3]heptan-2-yl)methyl]cyclohexyl]oxy}phenyl)piperidine-2,6-dione], in assay [1], the 50% degradation concentration (DC50) worked out at 24.2 nM, the Dmax was determined as 65.8% and the “Fold Selectivity SMARCA4/2” value is 13. In addition, in assay [2], the 50% degradation concentration (DC50) stood at 317 nM and the greatest degradation seen (Dmax) is 35.2%.

Regarding `O=C1CCC(c2ccc(N3CCC(CCN4CC5(CCCN(C(=O)C6(c7ccccc7)CCN(c7cnnc(-c8ccccc8O)c7)CC6)C5)C4)CC3)cc2)C(=O)N1` (racemic) [Example 167, rac-(3R)-3-(4-{4-[2-(6-{1-[6-(2-hydroxyphenyl)pyridazin-4-yl]-4-phenylpiperidine-4-carbonyl}-2,6-diazaspiro[3.5]nonan-2-yl)ethyl]piperidin-1-yl}phenyl)piperidine-2,6-dione], in assay [1], the 50% degradation concentration (DC50) came out at 40.1 nM, the Dmax came to 67.5% and the “Fold Selectivity SMARCA4/2” value is reported as 16. In assay [2], this compound gave a 50% degradation concentration (DC50) of 659 nM and a Dmax of 23.7%.

For `O=C1CCC(Nc2ccc(C3CCN(CCNC(=O)C4(c5ccccc5)CCN(c5cnnc(-c6ccccc6O)c5)CC4)CC3)cc2)C(=O)N1` (racemic) [Example 170, rac-N-{2-[4-(4-{[(3R)-2,6-dioxopiperidin-3-yl]amino}phenyl)piperidin-1-yl]ethyl}-1-[6-(2-hydroxyphenyl)pyridazin-4-yl]-4-phenylpiperidine-4-carboxamide], in assay [1], half-maximal degradation (DC50) was put at 38.3 nM, the Dmax was 59.2% and the “Fold Selectivity SMARCA4/2” value is on record as 261. The compound also registered a Dmax in assay [2] of 48.5%.

Take `N#CC1(CN2CCN(c3ccc([C@@H]4CCC(=O)NC4=O)cc3)CC2)CC12CCN(C(=O)C1(c3ccccc3)CCN(c3cnnc(-c4ccccc4O)c3)CC1)CC2` (mixture of isomers) [Example 171, rac-1-[(4-{4-[(3R)-2,6-dioxopiperidin-3-yl]phenyl}piperazin-1-yl)methyl]-6-{1-[6-(2-hydroxyphenyl)pyridazin-4-yl]-4-phenylpiperidine-4-carbonyl}-6-azaspiro[2.5]octane-1-carbonitrile]: in assay [1], the 50% degradation concentration (DC50) worked out at 28.5 nM, the Dmax was found to be 69.5% and the “Fold Selectivity SMARCA4/2” value is 35. Also, in assay [2], half-maximal degradation (DC50) was put at 1000 nM and the maximal degradation (Dmax) was 41.4%.

On to `CN(C(=O)CN1CCN(c2ccc([C@H]3CCC(=O)NC3=O)cc2)CC1)[C@H]1CC[C@H](NC(=O)C2(Oc3ccccc3)CCN(c3cnnc(-c4ccccc4O)c3)CC2)CC1` (racemic) [Example 173, 1-[6-(2-hydroxyphenyl)pyridazin-4-yl]-4-phenoxy-N-[(1r,4r)-4-[2-(4-{4-[(3R)-2,6-dioxopiperidin-3-yl]phenyl}piperazin-1-yl)-N-methylacetamido]cyclohexyl]piperidine-4-carboxamide], for which, in assay [1], the DC50 amounted to 44.9 nM, the Dmax was 62% and the “Fold Selectivity SMARCA4/2” value amounted to 223. In assay [2], this compound showed a Dmax of 39.8%.

In the case of `O=C1CC[C@H](c2ccc(N3CCC(CN[C@H]4CC[C@H](NC(=O)C5(c6ccccc6)CCN(c6cnnc(-c7ccccc7O)c6)CC5)CC4)CC3)cc2)C(=O)N1` (racemic) [Example 175, 1-[6-(2-hydroxyphenyl)pyridazin-4-yl]-4-phenyl-N-[(1r,4r)-4-{[(1-{4-[(3RS)-2,6-dioxopiperidin-3-yl]phenyl}piperidin-4-yl)methyl]amino}cyclohexyl]piperidine-4-carboxamide], in assay [1], the DC50 stood at 29.8 nM, the Dmax stood at 60.2% and the “Fold Selectivity SMARCA4/2” value came to 335. In addition, in assay [2], the Dmax is 35.6%.

Take `CC1(CN2CCC(c3ccc(C4CCC(=O)NC4=O)cc3)CC2)CCN(C(=O)C2(c3ccccc3)CCN(c3cnnc(-c4ccccc4O)c3)CC2)C1` (racemic) [Example 176, rac-(3R)-3-(4-{1-[(1-{1-[6-(2-hydroxyphenyl)pyridazin-4-yl]-4-phenylpiperidine-4-carbonyl}-3-methylpyrrolidin-3-yl)methyl]piperidin-4-yl}phenyl)piperidine-2,6-dione]: in assay [1], it took 22.3 nM to reach half-maximal degradation (DC50), the Dmax was 76.8% and the “Fold Selectivity SMARCA4/2” value is given as 449. In addition, in assay [2], the Dmax turned out to be 53%.

Turning to `O=C1CCC(Nc2ccc(C3CCN(CC4CCC45CN(C(=O)C4(c6ccccc6)CCN(c6cnnc(-c7ccccc7O)c6)CC4)C5)CC3)cc2)C(=O)N1` (racemic) [Example 177, rac-(3R)-3-[(4-{1-[(2-{1-[6-(2-hydroxyphenyl)pyridazin-4-yl]-4-phenylpiperidine-4-carbonyl}-2-azaspiro[3.3]heptan-5-yl)methyl]piperidin-4-yl}phenyl)amino]piperidine-2,6-dione], in assay [1], half-maximal degradation (DC50) was put at 3.53 nM, the Dmax was 71.5% and the “Fold Selectivity SMARCA4/2” value is given as 6. In addition, in assay [2], the DC50 came out at 21.6 nM and the Dmax was 54.5%.

Regarding `O=C1CC[C@H](c2ccc(N3CCC4(CC3)CC(N[C@H]3CC[C@H](NC(=O)C5(c6ccccc6)CCN(c6cnnc(-c7ccccc7O)c6)CC5)CC3)CO4)cc2)C(=O)N1` (mixture of isomers) [Example 178, 1-[6-(2-hydroxyphenyl)pyridazin-4-yl]-4-phenyl-N-[(1r,4r)-4-[(8-{4-[(3RS)-2,6-dioxopiperidin-3-yl]phenyl}-1-oxa-8-azaspiro[4.5]decan-3-yl)amino]cyclohexyl]piperidine-4-carboxamide], in assay [1], the DC50 turned out to be 10.1 nM, the maximal degradation (Dmax) amounted to 76.2% and the “Fold Selectivity SMARCA4/2” value is listed as 7. In assay [2], the DC50 is 70.3 nM and the greatest degradation seen (Dmax) worked out at 62.2%.
